From US10508077B2 (FORMA Therapeutics, Inc., priority 2015, dated 2019)

molecular target: T1, Full length human recombinant HDAC8 protein (Homo sapiens, UniProt Q9BY41); assay: In vitro histone deacetylase assay: enzymatic HDAC8 assay, electrophoretic mobility shift; format: biochemical; settings: substrate RHKK(Ac)-NH2, 1 nM enzyme, compounds listed under IC50 range headings
T1 construct: Full length human recombinant HDAC8 protein was expressed in baculoviral system; made in house
T1 sequence (Q9BY41 1-377): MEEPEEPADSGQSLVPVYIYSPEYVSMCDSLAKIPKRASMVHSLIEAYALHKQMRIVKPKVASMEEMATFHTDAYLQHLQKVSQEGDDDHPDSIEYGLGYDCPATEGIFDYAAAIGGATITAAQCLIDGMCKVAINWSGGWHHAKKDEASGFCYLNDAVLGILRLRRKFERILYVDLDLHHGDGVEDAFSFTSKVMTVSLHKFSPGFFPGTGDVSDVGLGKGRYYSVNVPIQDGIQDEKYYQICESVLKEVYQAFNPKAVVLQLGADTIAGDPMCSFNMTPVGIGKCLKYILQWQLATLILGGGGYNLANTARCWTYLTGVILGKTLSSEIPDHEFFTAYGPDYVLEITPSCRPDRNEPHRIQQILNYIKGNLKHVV
How it was run: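 Readout was microfluidic mobility-shift separation of deacetylated product from fluorescent RHKK(Ac)-NH2 substrate (2 µM), after reaction with 1 nM recombinant full-length human HDAC8 at 25 °C, pH 7.5, stopped with SDS. Twelve 3-fold-spaced concentrations tested; product/sum ratios normalized to controls and fitted with a 4-parameter model for IC50.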

Q: How did the IC50 turn out when `O=C(/C=C/c1ccccc1C(=O)N1CCN(CCc2ccccc2)CC1)NO` [II-21, (E)-N-hydroxy-3-(2-(4-phenethylpiperazine-1-carbonyl)phenyl)acrylamide] was run?
A: < 1 µM

Q: `O=C(/C=C/c1ccccc1C(=O)N1CCC(C(F)(F)F)CC1)NO` [II-23, (E)-N-hydroxy-3-(2-(4-(trifluoromethyl)piperidine-1-carbonyl)phenyl)acrylamide] was tested. Which IC50 did it give?
A: < 1 µM

Q: Which IC50 does the source give for `O=C(/C=C/c1ccccc1C(=O)N1CCS(=O)(=O)CC1)NO` [II-24, (E)-3-(2-(1,1-dioxidothiomorpholine-4-carbonyl)phenyl)-N-hydroxyacrylamide] here?
A: < 1 µM

Q: How did the IC50 turn out when `Cn1cc2c(n1)CCN(C(=O)c1ccccc1/C=C/C(=O)NO)C2` [II-25, (E)-N-hydroxy-3-(2-(2-methyl-4,5,6,7-tetrahydro-2H-pyrazolo[4,3-c]pyridine-5-carbonyl)phenyl)acrylamide] was run?
A: < 1 µM

Q: Which IC50 does the source give for `Cc1nnc(C)n1C1CCN(C(=O)c2ccccc2/C=C/C(=O)NO)CC1` [II-26, (E)-3-(2-(4-(3,5-dimethyl-4H-1,2,4-triazol-4-yl)piperidine-1-carbonyl)phenyl)-N-hydroxyacrylamide] here?
A: < 1 µM

Q: With `O=C(/C=C/c1ccccc1S(=O)(=O)C1CCN(Cc2ccccc2)CC1)NO` [II-30, (E)-3-(2-((1-benzylpiperidin-4-yl)sulfonyl)phenyl)-N-hydroxyacrylamide] as the compound, how does the IC50 read?
A: < 1 µM

Q: For `O=C(/C=C/c1ccccc1C(=O)Nc1cccc(C(F)(F)F)c1)NO` [II-36, (E)-2-(3-(hydroxyamino)-3-oxoprop-1-en-1-yl)-N-(3-(trifluoromethyl)phenyl)benzamide], which IC50 is on record?
A: < 1 µM

molecular target: T2, Recombinant N-terminal GST tag full-length human HDAC8 (Homo sapiens, UniProt Q9BY41); assay: HDAC8 probe binding assay, time resolved fluorescence (TRF); settings: fluorescein labeled pan-HDAC inhibitor probe, 16 hours incubation, compounds listed under IC50 range headings
T2 construct: Recombinant N-terminal GST tag full-length human HDAC8; purchased SignalChem H90-30G-1000; host or cells: Sf9 insect cells (baculovirus)
T2 sequence (Q9BY41 1-377): T1 sequence (Q9BY41 1-377)
Method: The HDAC8 probe binding assay was performed using a time resolved fluorescence (TRF) assay format. Recombinant N-terminal GST tag full-length human HDAC8 was expressed and purified from baculovirus in Sf9 insect cells (SignalChem, #H90-30G-1000), Each assay was performed in 1536 black well microplates (Corning, #3936) in a final volume of 4 μL in assay buffer containing 50 mM HEPES (pH 7.5), 50 mM KCl, 50 mM NaCl, 0.5 mM GSH (L-Glutathione reduced, Sigma #G4251), 0.03% BGG (0.22 μM filtered, Sigma, #G7516-25G), and 0.01% Triton X-100 (Sigma, #T9284-10L). 20 nL of 10-point, 3-fold serial dilution in DMSO was pre-dispensed into respective wells of 1536 assay plates for a final test concentration range of 25 μM to 1.3 nM respectively. The final concentration in the assay of HDAC8 and probe (a fluorescein labeled pan-HDAC inhibitor) was 2.5 nM and 1.5 nM respectively. 2 μL of 2× probe and 2× anti-GST Terbium (Cisbio, #61GSTXLB) was added to assay plates followed by 2 μL of 2× HDAC8. Plates were incubated for 16 hours at room temperature before time resolved fluorescence was read on the Envision (Excitation at 340 nm, and Emission at 485 nm and 535 nm, Perkin Elmer).
Data from HDAC8 Assays were reported as percent inhibition (inh) compared with control wells based on the following equation: % inh=1−((FLU−AveLow)/(AveHigh−AveLow)) where FLU=measured time resolved fluorescence. AveLow=average time resolved fluorescence of no enzyme control (n=32). AveHigh=average time resolved fluorescence of DMSO control (n=32). IC50 values were determined by curve fitting of the standard 4 parameter logistic fitting algorithm included in the Activity Base software package: IDBS XE Designer Model205. Data is fitted using the Levenburg Marquardt algorithm.

Q: `O=C(/C=C/c1ccccc1N1CCN(Cc2ccccc2)CC1=O)NO` [Example I-495, (E)-3-(2-(4-benzyl-2-oxopiperazin-1-yl)phenyl)-N-hydroxyacrylamide] was tested. Which IC50 did it give?
A: ≤ 1 µM

Q: `O=C(/C=C/c1ccccc1N1CCN(c2ccc(F)cc2)C1=O)NO` [Example I-501, (E)-3-(2-(3-(4-fluorophenyl)-2-oxoimidazolidin-1-yl)phenyl)-N-hydroxyacrylamide] was tested. Which IC50 did it give?
A: ≤ 1 µM

Q: With `O=C(/C=C/c1ccccc1N1CCN(c2ccc(OC(F)(F)F)cc2)CC1=O)NO` [Example I-503, (E)-N-hydroxy-3-(2-(2-oxo-4-(4-(trifluoromethoxy)phenyl)piperazin-1-yl)phenyl)acrylamide] as the compound, how does the IC50 read?
A: ≤ 1 µM

Q: How did the IC50 turn out when `O=C(/C=C/c1ccccc1N1CCN(c2ccc(F)cc2)CC1=O)NO` [Example I-504, (E)-3-(2-(4-(4-fluorophenyl)-2-oxopiperazin-1-yl)phenyl)-N-hydroxyacrylamide] was run?
A: ≤ 1 µM

Q: How did the IC50 turn out when `COc1cc(F)ccc1Oc1ccccc1C(=O)Nc1ccccc1/C=C/C(=O)NO` [Example I-546, (E)-2-(4-fluoro-2-methoxyphenoxy)-N-(2-(3-(hydroxyamino)-3-oxoprop-1-en-1-yl)phenyl)benzamide] was run?
A: ≤ 1 µM

Q: With `Cn1cc(Oc2ccccc2C(=O)Nc2ccccc2/C=C/C(=O)NO)cn1` [Example I-548, N-{2-[(1E)-2-(hydroxycarbamoyl)eth-1-en-1-yl]phenyl}-2-[(1-methyl-1H-pyrazol-4-yl)oxy]benzamide] as the compound, how does the IC50 read?
A: ≤ 1 µM

Q: For `O=C(/C=C/c1cc(Cl)ccc1NC(=O)c1ccccc1Oc1ccc(F)cc1)NO` [Example I-549, N-{4-chloro-2-[(1E)-2-(hydroxycarbamoyl)eth-1-en-1-yl]phenyl}-2-(4-fluorophenoxy)benzamide], which IC50 is on record?
A: ≤ 1 µM

Q: How did the IC50 turn out when `CC(C)(C)OC(=O)N1CCCC12CN(c1ccccc1/C=C/C(=O)NO)C2` [Example I-550, tert-butyl (E)-2-(2-(3-(hydroxyamino)-3-oxoprop-1-en-1-yl)phenyl)-2,5-diazaspiro[3.4]octane-5-carboxylate] was run?
A: ≤ 1 µM

Q: How did the IC50 turn out when `COc1ccc(F)cc1Oc1ccccc1C(=O)Nc1ccccc1/C=C/C(=O)NO` [Example I-551, 2-(5-fluoro-2-methoxyphenoxy)-N-{2-[(1E)-2-(hydroxycarbamoyl)eth-1-en-1-yl]phenyl}benzamide] was run?
A: ≤ 1 µM

Q: Which IC50 does the source give for `COc1cccc(Oc2ccccc2C(=O)Nc2ccccc2/C=C/C(=O)NO)c1` [Example I-552, N-{2-[(1E)-2-(hydroxycarbamoyl)eth-1-en-1-yl]phenyl}-2-(3-methoxyphenoxy)benzamide] here?
A: ≤ 1 µM

Q: `COc1cnccc1Oc1ccccc1C(=O)Nc1ccccc1/C=C/C(=O)NO` [Example I-553, N-{2-[(1E)-2-(hydroxycarbamoyl)eth-1-en-1-yl]phenyl}-2-[(3-methoxypyridin-4-yl)oxy]benzamide] was tested. Which IC50 did it give?
A: ≤ 1 µM

Q: Which IC50 does the source give for `O=C(/C=C/c1ccccc1N1CCCC12CN(C(=O)c1ccc(F)cc1)C2)NO` [Example I-554, (E)-3-(2-(2-(4-fluorobenzoyl)-2,5-diazaspiro[3.4]octan-5-yl)phenyl)-N-hydroxyacrylamide] here?
A: 1 to 100 µM

Q: With `O=C(/C=C/c1cc(F)ccc1NC(=O)c1ccccc1Oc1ccc(F)cc1)NO` [Example I-555, N-{4-fluoro-2-[(1E)-2-(hydroxycarbamoyl)eth-1-en-1-yl]phenyl}-2-(4-fluorophenoxy)benzamide] as the compound, how does the IC50 read?
A: ≤ 1 µM

Q: For `Cn1cc(Oc2ccccc2C(=O)Nc2ccc(F)cc2/C=C/C(=O)NO)cn1` [Example I-558, N-{4-fluoro-2-[(1E)-2-(hydroxycarbamoyl)eth-1-en-1-yl]phenyl}-2-[(1-methyl-1H-pyrazol-4-yl)oxy]benzamide], which IC50 is on record?
A: ≤ 1 µM

Q: How did the IC50 turn out when `COc1ccc(Oc2ccccc2C(=O)Nc2ccccc2/C=C/C(=O)NO)cc1` [Example I-559] was run?
A: ≤ 1 µM

Q: How did the IC50 turn out when `Cc1ccc(Oc2ccccc2C(=O)Nc2ccc(Cl)cc2/C=C/C(=O)NO)cn1` [Example I-560, N-{4-chloro-2-[(1E)-2-(hydroxycarbamoyl)eth-1-en-1-yl]phenyl}-2-[(6-methylpyridin-3-yl)oxy]benzamide] was run?
A: ≤ 1 µM

Q: With `O=C(/C=C/c1ccccc1N1CCCC12CN(C(=O)Cc1ccccc1)C2)NO` [Example I-561, (E)-N-hydroxy-3-(2-(2-(2-phenylacetyl)-2,5-diazaspiro[3.4]octan-5-yl)phenyl)acrylamide] as the compound, how does the IC50 read?
A: ≤ 1 µM

Q: For `O=C(/C=C/c1ccccc1N1CCCC12CN(C(=O)Cc1ccc(F)cc1)C2)NO` [Example I-562], which IC50 is on record?
A: ≤ 1 µM

Q: For `O=C(/C=C/c1c(Cl)cccc1NC(=O)c1ccccc1Oc1ccc(F)cc1)NO` [Example I-563, N-{3-chloro-2-[(1E)-2-(hydroxycarbamoyl)eth-1-en-1-yl]phenyl}-2-(4-fluorophenoxy)benazmide], which IC50 is on record?
A: ≤ 1 µM

Q: How did the IC50 turn out when `O=C(/C=C/c1ccc(Cl)cc1NC(=O)c1ccccc1Oc1ccc(F)cc1)NO` [Example I-564, N-{5-chloro-2-[(1E)-2-(hydroxycarbamoyl)eth-1-en-1-yl]phenyl}-2-(4-fluorophenoxy)benzamide] was run?
A: ≤ 1 µM

Q: `O=C(/C=C/c1ccccc1N1CCCC12CN(C(=O)C1CCCC1)C2)NO` [Example I-565, (E)-3-(2-(2-(cyclopentanecarbonyl)-2,5-diazaspiro[3.4]octan-5-yl)phenyl)-N-hydroxyacrylamide] was tested. Which IC50 did it give?
A: ≤ 1 µM

Q: With `O=C(/C=C/c1ccccc1N1CCCC12CN(C(=O)CC(F)(F)F)C2)NO` [Example I-566, (E)-N-hydroxy-3-(2-(2-(3,3,3-trifluoropropanoyl)-2,5-diazaspiro[3.4]octan-5-yl)phenyl)acrylamide] as the compound, how does the IC50 read?
A: ≤ 1 µM

Q: With `O=C(/C=C/c1ccccc1N1CCCC12CN(C(=O)C1CCCCC1)C2)NO` [Example I-567, (E)-3-(2-(2-(cyclohexanecarbonyl)-2,5-diazaspiro[3.4]octan-5-yl)phenyl)-N-hydroxyacrylamide] as the compound, how does the IC50 read?
A: 1 to 100 µM
